Experimental data as given in patent US20240148675A1, “TOPICAL COMPOSITIONS AND METHODS FOR TREATMENT” (Atossa Therapeutics, Inc., priority 2017, published 2024).

Assays:
[1] = Stability of endoxifen free base in polar organic solvents in the absence and presence of skin; format: physicochemical; conditions: for potency and stability in the solvents in the presence of skin: compared with potency in absence of skin after 2 days; for % Potency: relative to initiation of study
Experimental: (§1) HPLC-UV. Briefly, (E)- and (Z)-endoxifen were analyzed by High Performance Liquid Chromatography, HPLC (instrument: Agilent 1100) using a UV detector (Agilent). Chromatographic resolution was obtained using a Luna Phenyl Hexyl Column ([…]×150 mm) at a column temperature of 40° C. Samples were injected in an injection volume of 10 ul and run at a flow rate of 1.0 ml/min. The mobile phase system used consisted of: A) water with 10 mM ammonium formate (HCOONH4) with 0.03% formic acid and B) Methanol with 10 mM ammonium formate (HCOONH4).
The stability studies of endoxifen free base in various pure polar organic solvents/MPEs were performed as described below. Accelerated stability studies of (Z)-endoxifen free base in solvents/MPEs were performed over a course of 2 days at 45° C. in both the presence and the absence of human cadaver skin to assess the degree to which the (Z)-endoxifen conversion to (E)-endoxifen by isomerization and or chemical degradation of the endoxifen is accelerated upon contact with skin and skin components. (Z)-Endoxifen solutions at ˜80% of saturation concentrations were prepared in 1 ml batches in solvents as listed below in the Table 3. The potencies of (Z)-endoxifen and (E)-endoxifen were determined by HPLC-UV analysis as described above. Potency results are shown compared with potencies measured when the sample were stored at the initiation of stability study.

[2] = aqueous medium, 45° C., day 15, starting from 98%; cited from earlier work
[3] = Solubility of (Z) and (E)-endoxifen in polar organic solvents (HPLC-UV); format: physicochemical
Experimental: (Z)-endoxifen free base was synthesized as described above in Example 1. (Z)-endoxifen was solubilized in various solvents as provided in Table 1, and tested for physical and chemical stability in solution. The solutions were prepared in ˜1 ml batches typically for solubility and stability testing. The mixture was stirred overnight on a rotisserie at room temperature. The next, […], the suspension was filtered using a syringe filter (0.2 um pore size GHP membrane). The filtrated solution was then analyzed for the concentration of (Z)-endoxifen and (E)-endoxifen as using a validated HPLC-UV method as described below.
as §1
UV detection of (E)-endoxifen and (Z)-endoxifen isomers was performed at 243 nm with a run time of 30 minutes. Retention times for (E)-endoxifen and (Z)-endoxifen were 15.14 m and 16.25 m respectively. […]

[4] = in Diethyl Sebacate, 45° C. + skin (human cadaver), 2 days
[5] = in Diethylene glycol monoethyl ether, 45° C. + skin (human cadaver), 2 days
[6] = in Dimethyl Isosorbide, 45° C. + skin (human cadaver), 2 days
[7] = in Dipropylene Glycol, 45° C. + skin (human cadaver), 2 days
[8] = in Isopropyl Myristate, 45° C. + skin (human cadaver), 2 days
[9] = in PEG 300, 45° C. + skin (human cadaver), 2 days

| potency and stability in the solvents in the presence of skin ([1]; 45° C.) | % Potency [1, 4] | % Potency [1, 5] | % Potency [1, 6] | % Potency [1, 7] | % Potency [1, 8] | % Potency [1, 9] | % Potency ([1]; in Diisopropyl Adipate, 45° C. + skin (human cadaver), 2 days) | stability of (Z)-endoxifen in polar organic solvents ([3]; polar organic solvents of Table 1) | stability of dissolved endoxifen ([1]; dissolved in dimethyl isosorbide and isopropyl myristate, 2 days, 45° C.) | solubility in polar organic solvents/MPEs ([3]; DMSO, ethanol, diethylene monoethyl ether, and oleic acid) | SMILES | (Z)-endoxifen remaining after degradation [2] |
| --- | --- | --- | --- | --- | --- | --- | --- | --- | --- | --- | --- | --- |
| maintained potency and stability | 99% | 98% | 16% | 95% | 68% | 92% |  |  |  |  | CC/C(=C(/c1ccc(O)cc1)c1ccc(OCCNC)cc1)c1ccccc1 [(E)-endoxifen free base] |  |
|  |  |  |  |  |  |  |  |  |  |  | CC/C(=C(\c1ccc(O)cc1)c1ccc(OCCNC)cc1)c1ccccc1.Cl [(Z)-endoxifen HCl] | 75% |
| maintained potency and stability | 94% | 98% | 17% | 94% | 63% | 92% | 99% | surprisingly stable |  |  | CC/C(=C(\c1ccc(O)cc1)c1ccc(OCCNC)cc1)c1ccccc1 [(Z)-endoxifen free base, (Z)-4-(1-(4-(2-(methylamino)ethoxy)phenyl)-2-phenylbut-1-enyl)phenol] |  |
|  |  |  |  |  |  |  |  |  | poor stability | significantly soluble | CC/C(=C(\c1ccc(O)cc1)c1ccc(OCCNC)cc1)c1ccccc1 [Total Endoxifen free base, (E/Z)-4-[1-[4-[2-(Methylamino)ethoxy]phenyl]-2-phenyl-1-buten-1-yl]-phenol] |  |
